Key:
Conditions in all cases: in vivo
[1] = Toxicity in ip dosed mouse; format: organism-based
Mus musculus [2] = assay: Neurotoxicity in mouse assessed as tremorgenic activity at 160 mg/kg, ip; format: toxicity, organism-based; set-up: dose 160 mg/kg, route intraperitoneal
Mus musculus [3] = assay: Neurotoxicity in mouse assessed as ataxia at 160 mg/kg, ip; format: toxicity, organism-based; set-up: dose 160 mg/kg, route intraperitoneal
Mus musculus [4] = assay: Neurotoxicity in mouse assessed as labored breathing at 160 mg/kg, ip; format: toxicity, organism-based; set-up: dose 160 mg/kg, route intraperitoneal
Mus musculus [5] = assay: Neurotoxicity in mouse assessed as distress at 160 mg/kg, ip; format: toxicity, organism-based; set-up: dose 160 mg/kg, route intraperitoneal

Q: Which LD50 [1] does the source give for `COc1c(C)c([C@]2(C)O[C@H]2/C(C)=C/C(C)=C/[C@]2(C)O[C@H](C)[C@@]3(C)O[C@H]32)oc(=O)c1C` [VERRUCOSIDIN] here?
A: 4 mg/kg

Q: Which Activity (Mus musculus [2]) does the source give for `C=CC(C)(C)[C@@]12C[C@H]3C(=O)N[C@H](CC(C)C)C(=O)N3[C@H]1N(C(C)=O)c1ccccc12` [VERRUCOFORTINE] here?
A: Non-toxic

Q: What about the Activity (Mus musculus [3]) of the same molecule?
A: Non-toxic

Q: What about the Activity (Mus musculus [4]) of the same molecule?
A: Non-toxic

Q: What about the Activity (Mus musculus [5]) of the same molecule?
A: Non-toxic

From ChEMBL document CHEMBL1150742, “Verrucofortine, a major metabolite of Penicillium verrucosum var. cyclopium, the fungus that produces the mycotoxin verrucosidin” (J Nat Prod, 1988)
